From ChEMBL document CHEMBL1201862, “PubChem BioAssay data set” (2004)
The source made the active and inactive calls. Rule as the data show it: actives have a measured IC50 and inactives only a lower limit.

Molecular target: Envelope glycoprotein gp160 (Human immunodeficiency virus 1, UniProt Q6QLK5)
Experiment: cell-free HIV fusion peptide-binding blockers – biochemical, uHTS, fluorescence dequenching, […] (AID 1986)

Chain of Envelope glycoprotein gp160 (Q6QLK5 whole entry, the tested form may be a part): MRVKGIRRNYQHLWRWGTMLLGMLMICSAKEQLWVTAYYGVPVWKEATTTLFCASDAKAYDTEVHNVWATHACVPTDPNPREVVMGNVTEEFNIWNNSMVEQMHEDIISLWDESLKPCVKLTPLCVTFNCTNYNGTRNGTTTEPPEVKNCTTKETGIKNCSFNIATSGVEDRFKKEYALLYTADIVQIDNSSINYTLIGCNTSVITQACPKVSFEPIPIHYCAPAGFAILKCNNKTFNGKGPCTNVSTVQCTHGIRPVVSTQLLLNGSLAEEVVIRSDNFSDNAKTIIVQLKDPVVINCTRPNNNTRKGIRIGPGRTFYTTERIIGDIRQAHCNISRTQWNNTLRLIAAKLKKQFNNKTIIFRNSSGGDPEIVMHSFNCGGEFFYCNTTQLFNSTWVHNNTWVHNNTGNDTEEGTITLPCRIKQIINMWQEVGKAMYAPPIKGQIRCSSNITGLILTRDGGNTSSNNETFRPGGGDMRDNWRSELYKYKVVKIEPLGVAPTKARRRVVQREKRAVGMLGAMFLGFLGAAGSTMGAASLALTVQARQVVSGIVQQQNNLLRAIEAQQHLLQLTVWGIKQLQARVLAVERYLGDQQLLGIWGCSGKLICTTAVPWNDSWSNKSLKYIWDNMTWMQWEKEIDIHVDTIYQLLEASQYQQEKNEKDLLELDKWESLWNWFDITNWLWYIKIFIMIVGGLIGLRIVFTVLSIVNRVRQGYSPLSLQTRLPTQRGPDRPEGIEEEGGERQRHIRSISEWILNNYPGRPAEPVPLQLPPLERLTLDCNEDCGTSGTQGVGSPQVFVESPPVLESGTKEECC

## O=C(CN1C(=O)/C(=C2\SC(=S)N(CCS(=O)(=O)O)C2=O)c2ccccc21)Nc1cccc(Br)c1
  IC50: 9.81 µM (active)
